Starred links: 1 amine or outer side, 2 acyl side, 3 side chain; linkers in the order of their positions; H or OH if unused. Positions of bridges follow the written chain, without caps; N, C: chain ends. Non-standard residues stand in square brackets, D forms with d. Residues, ends and D or L forms follow the SMILES beside them. X1 = O=C(CC1(S[*:2])CCCCC1)[*:1]; Cha = N[C@@H](CC1CCCCC1)C(=O)O; Nle = CCCC[C@H](N)C(=O)O; Orn = NCCC[C@H](N)C(=O)O; Nva = CCC[C@H](N)C(=O)O; Abu = CC[C@H](N)C(=O)O
Test system: antidiuretic response to arginine vasopressin (ADH)
Test: Anti-antidiuretic: antagonism of the antidiuretic response to subsequent injections of vasopressin
Assay type: in vivo, rats
Conditions: estimated in vivo pA2, volume of distribution 67 ml/kg
Description: Activity as antidiuretic agonists was determined by intravenous injection of the compounds being evaluated in ethanol-anesthesized water-loaded rats in accordance with Sawyer, Endocrinology, vol. 63 (1958) at 694. Antagonism of the response to subsequent injections of vasopressin was tested as described by Sawyer et al., Science, vol. 212 (1981) at 49.
Antagonistic potencies were determined and expressed as "effective doses" and pA2 values. The "effective dose" is defined as the dose (in nanomoles per kilogram) that reduces the response seen from 2x units of agonist injected 20 min after the dose of antagonist to the response with 1x units of agonist. Estimated in vivo "pA2 " values represent the negative logarithms of the effective doses, divided by the estimated volume of distribution (67 ml/kg).

Compound	Anti-Antidiuretic pA2 (Table 1)	Anti-Antidiuretic pA2 (Table 2)
CC(C)[C@@H]1NC(=O)[C@H](Cc2ccccc2)NC(=O)[C@@H](Cc2ccc(O)cc2)NC(=O)CC2(CCCCC2)SSC[C@@H](C(=O)N2CCC[C@H]2C(=O)N[C@@H](CCCNC(=N)N)C(=O)NCC(N)=O)NC(=O)[C@H](CC(N)=O)NC1=O [d(CH2)5 --D-TyrVAVP, [1-(β-mercapto-β,β-cyclopentamethylenepropionic acid), 2-D-tyrosine, 4-valine]-arginine vasopressin] ([dY]FVNCPRG-NH2; linker N-5 via X1)	7.51 ± 0.08	
CC[C@@H](C)[C@H]1NC(=O)CC2(CCCCC2)SSC[C@@H](C(=O)N2CCC[C@H]2C(=O)N[C@@H](CCCNC(=N)N)C(=O)NCC(N)=O)NC(=O)[C@H](CC(N)=O)NC(=O)[C@H](CCC(N)=O)NC(=O)[C@H](Cc2ccccc2)NC1=O [d(CH2)5 D-Ile^2 AVP, [1-(β-mercapto-β,β-cyclopentamethylenepropionic acid), 2-D-isoleucine]-arginine vasopressin] ([dI]FQNCPRG-NH2; linker N-5 via X1)		6.96
CC[C@@H]1NC(=O)[C@H](Cc2ccccc2)NC(=O)[C@@H]([C@H](C)CC)NC(=O)CC2(CCCCC2)SSC[C@@H](C(=O)N2CCC[C@H]2C(=O)N[C@@H](CCCNC(=N)N)C(=O)NCC(N)=O)NC(=O)[C@H](CC(N)=O)NC1=O [d(CH2)5 D-Ile^2 Abu^4 AVP, [1-(β-mercapto-β,β-cyclopentamethylenepropionic acid), 2-D-isoleucine, 4-α-aminobutyric acid]-arginine vasopressin] ([dI]F[Abu]NCPRG-NH2; linker N-5 via X1)		8.22
CC[C@@H](C)[C@H]1NC(=O)CC2(CCCCC2)SSC[C@@H](C(=O)N2CCC[C@H]2C(=O)N[C@@H](CCCNC(=N)N)C(=O)NCC(N)=O)NC(=O)[C@H](CC(N)=O)NC(=O)[C@H](C)NC(=O)[C@H](Cc2ccccc2)NC1=O [d(CH2)5 D-Ile^2 Ala^4 AVP, [1-(β-mercapto-β,β-cyclopentamethylenepropionic acid), 2-D-isoleucine, 4-alanine]-arginine vasopressin] ([dI]FANCPRG-NH2; linker N-5 via X1)		7.76
CC[C@@H](C)[C@H]1NC(=O)CC2(CCCCC2)SSC[C@@H](C(=O)N2CCC[C@H]2C(=O)N[C@@H](CCCNC(=N)N)C(=O)NCC(N)=O)NC(=O)[C@H](CC(N)=O)NC(=O)[C@H]([C@@H](C)CC)NC(=O)[C@H](Cc2ccccc2)NC1=O [d(CH2)5 D-Ile^2 Ile^4 AVP, [1-(β-mercapto-β,β-cyclopentamethylenepropionic acid), 2-D-isoleucine, 4-isoleucine]-arginine vasopressin] ([dI]FINCPRG-NH2; linker N-5 via X1)		8.04
CC[C@@H](C)[C@H]1NC(=O)CC2(CCCCC2)SSC[C@@H](C(=O)N2CCC[C@H]2C(=O)N[C@@H](CCCNC(=N)N)C(=O)NCC(N)=O)NC(=O)[C@H](CC(N)=O)NC(=O)[C@H](CC(C)C)NC(=O)[C@H](Cc2ccccc2)NC1=O [d(CH2)5 D-Ile^2 Leu^4 AVP, [1-(β-mercapto-β,β-cyclopentamethylenepropionic acid), 2-D-isoleucine, 4-leucine]-arginine vasopressin] ([dI]FLNCPRG-NH2; linker N-5 via X1)		6.80
CC[C@@H](C)[C@H]1NC(=O)CC2(CCCCC2)SSC[C@@H](C(=O)N2CCC[C@H]2C(=O)N[C@@H](CCCNC(=N)N)C(=O)NCC(N)=O)NC(=O)[C@H](CC(N)=O)NC(=O)[C@H]([C@@H](C)O)NC(=O)[C@H](Cc2ccccc2)NC1=O [d(CH2)5 D-Ile^2 Thr^4 AVP, [1-(β-mercapto-β,β-cyclopentamethylenepropionic acid), 2-D-isoleucine, 4-threonine]-arginine vasopressin] ([dI]FTNCPRG-NH2; linker N-5 via X1)		7.91
CC[C@@H](C)[C@H]1NC(=O)CC2(CCCCC2)SSC[C@@H](C(=O)N2CCC[C@H]2C(=O)N[C@@H](CCCNC(=N)N)C(=O)NCC(N)=O)NC(=O)[C@H](CC(N)=O)NC(=O)[C@H](C(C)C)NC(=O)[C@H](Cc2ccccc2)NC1=O [d(CH2)5 D-Ile^2 VAVP, [1-(β-mercapto-β,β-cyclopentamethylenepropionic acid), 2-D-isoleucine, 4-valine]-arginine vasopressin] ([dI]FVNCPRG-NH2; linker N-5 via X1)		7.98
CC[C@@H](C)[C@H]1NC(=O)CC2(CCCCC2)SSC[C@@H](C(=O)N2CCC[C@H]2C(=O)N[C@@H](CCCN)C(=O)NCC(N)=O)NC(=O)[C@H](CC(N)=O)NC(=O)[C@H](C(C)C)NC(=O)[C@H](Cc2ccccc2)NC1=O [d(CH2)5 D-Ile^2 Val^4 Orn^8 VP] ([dI]FVNCP[Orn]G-NH2; linker N-5 via X1)		7.66
N=C(N)NCCC[C@H](NC(=O)[C@@H]1CCCN1C(=O)[C@@H]1CSSC2(CCCCC2)CC(=O)N[C@H](Cc2ccccc2)C(=O)N[C@@H](Cc2ccccc2)C(=O)N[C@@H](CCC(N)=O)C(=O)N[C@@H](CC(N)=O)C(=O)N1)C(=O)NCC(N)=O [d(CH2)5 D-Phe^2 AVP, [1-(β-mercapto-β,β-cyclopentamethylenepropionic acid), 2-D-phenylalanine]-arginine vasopressin] ([dF]FQNCPRG-NH2; linker N-5 via X1)		7.21
C[C@@H]1NC(=O)[C@H](Cc2ccccc2)NC(=O)[C@@H](Cc2ccccc2)NC(=O)CC2(CCCCC2)SSC[C@@H](C(=O)N2CCC[C@H]2C(=O)N[C@@H](CCCNC(=N)N)C(=O)NCC(N)=O)NC(=O)[C@H](CC(N)=O)NC1=O [d(CH2)5 D-Phe^2 Ala^4 AVP, [1-(β-mercapto-β,β-cyclopentamethylenepropionic acid), 2-D-phenylalanine, 4-alanine]-arginine vasopressin] ([dF]FANCPRG-NH2; linker N-5 via X1)		7.52
N=C(N)NCCC[C@H](NC(=O)[C@@H]1CCCN1C(=O)[C@@H]1CSSC2(CCCCC2)CC(=O)N[C@H](Cc2ccccc2)C(=O)N[C@@H](Cc2ccccc2)C(=O)N[C@@H](CC2CCCCC2)C(=O)N[C@@H](CC(N)=O)C(=O)N1)C(=O)NCC(N)=O [d(CH2)5 D-Phe^2 Cha^4 AVP, [1-(β-mercapto-β,β-cyclopentamethylenepropionic acid), 2-D-phenylalanine, 4-cyclohexylalanine]-arginine vasopressin] ([dF]F[Cha]NCPRG-NH2; linker N-5 via X1)		7.19
N=C(N)NCCC[C@H](NC(=O)[C@@H]1CCCN1C(=O)[C@@H]1CSSC2(CCCCC2)CC(=O)N[C@H](Cc2ccccc2)C(=O)N[C@@H](Cc2ccccc2)C(=O)NCC(=O)N[C@@H](CC(N)=O)C(=O)N1)C(=O)NCC(N)=O [d(CH2)5 D-Phe^2 Gly^4 AVP, [1-(β-mercapto-β,β-cyclopentamethylenepropionic acid), 2-D-phenylalanine, 4-glycine]-arginine vasopressin] ([dF]FGNCPRG-NH2; linker N-5 via X1)		5.85
CC[C@H](C)[C@@H]1NC(=O)[C@H](Cc2ccccc2)NC(=O)[C@@H](Cc2ccccc2)NC(=O)CC2(CCCCC2)SSC[C@@H](C(=O)N2CCC[C@H]2C(=O)N[C@@H](CCCNC(=N)N)C(=O)NCC(N)=O)NC(=O)[C@H](CC(N)=O)NC1=O [d(CH2)5 D-Phe^2 Ile^4 AVP, [1-(β-mercapto-β,β-cyclopentamethylenepropionic acid), 2-D-phenylalanine, 4-isoleucine]-arginine vasopressin] ([dF]FINCPRG-NH2; linker N-5 via X1)		8.24
CC(C)C[C@@H]1NC(=O)[C@H](Cc2ccccc2)NC(=O)[C@@H](Cc2ccccc2)NC(=O)CC2(CCCCC2)SSC[C@@H](C(=O)N2CCC[C@H]2C(=O)N[C@@H](CCCNC(=N)N)C(=O)NCC(N)=O)NC(=O)[C@H](CC(N)=O)NC1=O [d(CH2)5 D-Phe^2 Leu^4 AVP, [1-(β-mercapto-β,β-cyclopentamethylenepropionic acid), 2-D-phenylalanine, 4-leucine]-arginine vasopressin] ([dF]FLNCPRG-NH2; linker N-5 via X1)		6.07
N=C(N)NCCC[C@H](NC(=O)[C@@H]1CCCN1C(=O)[C@@H]1CSSC2(CCCCC2)CC(=O)N[C@H](Cc2ccccc2)C(=O)N[C@@H](Cc2ccccc2)C(=O)N[C@@H](CCCCN)C(=O)N[C@@H](CC(N)=O)C(=O)N1)C(=O)NCC(N)=O [d(CH2)5 D-Phe^2 Lys^4 AVP, [1-(β-mercapto-β,β-cyclopentamethylenepropionic acid), 2-D-phenylalanine, 4-lysine]-arginine vasopressin] ([dF]FKNCPRG-NH2; linker N-5 via X1)		7.22
CCCC[C@@H]1NC(=O)[C@H](Cc2ccccc2)NC(=O)[C@@H](Cc2ccccc2)NC(=O)CC2(CCCCC2)SSC[C@@H](C(=O)N2CCC[C@H]2C(=O)N[C@@H](CCCNC(=N)N)C(=O)NCC(N)=O)NC(=O)[C@H](CC(N)=O)NC1=O [d(CH2)5 D-Phe^2 Nle^4 AVP, [1-(β-mercapto-β,β-cyclopentamethylenepropionic acid), 2-D-phenylalanine, 4-norleucine]-arginine vasopressin] ([dF]F[Nle]NCPRG-NH2; linker N-5 via X1)		7.12
CCC[C@@H]1NC(=O)[C@H](Cc2ccccc2)NC(=O)[C@@H](Cc2ccccc2)NC(=O)CC2(CCCCC2)SSC[C@@H](C(=O)N2CCC[C@H]2C(=O)N[C@@H](CCCNC(=N)N)C(=O)NCC(N)=O)NC(=O)[C@H](CC(N)=O)NC1=O [d(CH2)5 D-Phe^2 Nva^4 AVP, [1-(β-mercapto-β,β-cyclopentamethylenepropionic acid), 2-D-phenylalanine, 4-norvaline]-arginine vasopressin] ([dF]F[Nva]NCPRG-NH2; linker N-5 via X1)		6.99
